Values quoted from earlier work, collected in PMC3389233 (Bioorganic & medicinal chemistry, 2012).
Like-named read-outs stand apart in the source and are kept apart here.

Molecular target: HPPK

**Q.** For `Nc1nc2c(c(=O)[nH]1)N=C(CO)CN2` [HP, 6-hydroxymethyl-7,8-dihydropterin], which Kd (rapid addition of HP after MgATP binding) is on record?
**A.** sub-µM range

**Q.** For `Nc1ncnc2c1ncn2[C@@H]1O[C@H](COP(=O)(O)OP(=O)(O)OP(=O)(O)O)[C@@H](O)[C@H]1O` [MgATP], which Kd (MgATP binding to the enzyme first) is on record?
**A.** 2.6 to 4.5 µM
